# From patent publication US9539249B2, “PPAR gamma agonists for treatment of multiple sclerosis” (InteKrin Therapeutics, Inc., priority 2013, dated 2017)
# Entries after “also recorded” stand apart in the source; their conditions may differ. Read-outs that look alike come from different tables or passages of the source.
# How the values were obtained:
# EAE = EAE relapse model, INT131 treatment begun at first remission; assay type: in vivo, mice; settings: for clinical course from the 22nd day following immunization: treated from day 20, vehicle animals relapsed; for relapse rate (percent of animals relapsed): 25th day post-immunization, vehicle 72 percent
# Description: EAE is a well-characterized and widely used model of MS. It is one of the few animal models in which drug therapeutic activity in the model often mimics and anticipates the drug's effects in human disease. In this model, mice are immunized with well-defined antigenic fragments of central nervous system myelin, such as fragments of the proteolipid protein (PLP). Over the course of 2 to 3 weeks the immunized animals develop a clinical and histopathologic syndrome of T-cell mediated cerebral autoimmunity that is highly reminiscent of relapsing/remitting MS (RRMS). The similarities between EAE and RRMS include inflammatory cerebral infiltrated and accompanying Th1/Th17 responses to both the disease initiating myelin PLP peptide, and subsequent epitope spread, seen in disease relapse. The animals were immunized with the myelin peptide (PLP^139-151) and the spread epitope peptide (PLP^178-191) which drives disease relapse. Studies consisted of three experimental arms in which the mice were given daily ip injection of vehicle, or either 1 or 3 mg/kg/d of INT131. Following immunization, the animals underwent daily neurological evaluation by an experienced investigator. In these studies treatment began at the time of the first remission. […] Following the expected clinical disease peak at about two weeks post-immunization, symptoms began to ebb as the animals drifted into remission. All of the animals were treated with INT131 on day 20. By the 22nd day following immunization relapse began as expected, however, only in the vehicle treated animals.
# [1] = system: infiltrating CD45-positive leukocytes; experiment: CD45-positive leukocyte infiltration in brainstem of EAE mice treated at the peak of disease; assay type: in vivo
# Description: Initiating INT131 treatment during remission extends the time subjects remain relapse-free, as compared to vehicle/placebo treatment. However, because there is little active neuroinflammation during remission, this paradigm is not informative about the effects of INT131 on acute neuroinflammation. To better understand the effects of INT131 on the acute inflammatory response we treated mice with EAE at the height of the clinical disease. […] INT131 treatment was begun at the peak of disease (day 20) and brainstems were harvested at day 32, and stained with αCD45 to identify infiltrating leukocytes. CD45 (also known as Leukocyte Common Antigen) is expressed on all hematopoietic cells except erythrocytes and platelets, and is required for B- and T cell-receptor-mediated activation. Thus, CD45 is critical in mediating the inflammatory process. […] These findings unify the clinical and histological findings that INT131 is a potent and effective treatment of acute neuroinflammation in this model of RRMS.
# [2] = Tissue distribution of [3H]INT131 after intraperitoneal injection (penetration of the intact BBB); assay type: in vivo, Sprague-Dawley rats; settings: for concentration at 6 h: 6 h after ~50 mg/kg ip; for concentration at 24 h: 24 h after ~50 mg/kg ip
# Procedure: (§1) To test whether INT131 is able to penetrate the intact BBB INT131 was radiolabeled with tritium (“[^3H]INT131”), prior to intraperitoneal injection into adult Sprague-Dawley rats. The purity of the radiolabeled INT131 was determined by high-performance liquid chromatography (HPLC) fractionation prior to injection, and again at the close of the experiment. […] The test animals were sacrificed at 1, 6 and 24 hours after injection and blood, brain, cerebrospinal fluid (“CSF”), spinal cord, kidney, liver and small bowel were harvested for determination of [^3H]INT131 content by liquid scintillography.
# [3] = HPLC fractionation of radiolabeled INT131 before injection and at the close of the experiment; assay type: physicochemical; settings: prior to injection and at the close of the experiment
# Procedure: as §1
# [4] = Sprague-Dawley, CSF, intraperitoneal, rat, read-out: INT131 concentration in CSF
# [5] = Sprague-Dawley, blood, intraperitoneal, rat, read-out: INT131 concentration in Blood
# [6] = Sprague-Dawley, brain, intraperitoneal, rat, read-out: INT131 concentration in Brain
# [7] = Sprague-Dawley, kidney, intraperitoneal, rat, read-out: INT131 concentration in Kidney
# [8] = Sprague-Dawley, liver, intraperitoneal, rat, read-out: INT131 concentration in Liver
# [9] = Sprague-Dawley, small bowel, intraperitoneal, rat, read-out: INT131 concentration in Small bowel
# [10] = Sprague-Dawley, spinal cord, intraperitoneal, rat, read-out: INT131 concentration in Spinal cord
smiles,measurement,setting,value
O=S(=O)(Nc1cc(Cl)c(Oc2cnc3ccccc3c2)c(Cl)c1)c1ccc(Cl)cc1Cl [INT131],clinical course from the 22nd day following immunization,EAE; 1 mg/kg,continued to improve slightly
same,relapse rate (percent of animals relapsed),EAE; 1 mg/kg/d ip,9%
same,clinical course from the 22nd day following immunization,EAE; 3 mg/kg,remained stable
same,relapse rate (percent of animals relapsed),EAE; 3 mg/kg/d ip,16%
same,disease burden among treated animals that relapse,EAE; in comparison to vehicle treated mice,exceptionally mild
same,symptoms of animals with EAE,"EAE; mouse, in vivo",becoming and remaining mostly symptom-free
same,effect on relapse,EAE; treatment begun at first remission,virtually blocks relapse
same,clinical symptoms,[1]; treatment at the height of clinical disease,rapid improvement in clinical symptoms
same,infiltrating CD45-positive leukocytes in brainstem,"[1]; treatment from day 20 (peak of disease), brainstems harvested day 32, either concentration, compared to vehicle",paucity of infiltrating CD45-positive leukocytes; also recorded: paucity of infiltrating white cells
same,concentration at 1 h,"[2]; Sprague-Dawley, CSF, intraperitoneal, 1 h after ~50 mg/kg ip, rat, read-out: INT131 concentration in CSF",292 ng/g
same,concentration at 6 h,[2]; [4],2860 ng/g
same,concentration at 24 h,[2]; [4],5300 ng/g
same,concentration at 1 h,"[2]; Sprague-Dawley, blood, intraperitoneal, 1 h after ~50 mg/kg ip, rat, read-out: INT131 concentration in Blood",4050 ng/g
same,concentration at 6 h,[2]; [5],41800 ng/g
same,concentration at 24 h,[2]; [5],17900 ng/g
same,concentration at 1 h,"[2]; Sprague-Dawley, brain, intraperitoneal, 1 h after ~50 mg/kg ip, rat, read-out: INT131 concentration in Brain",569 ng/g
same,concentration at 6 h,[2]; [6],5980 ng/g
same,concentration at 24 h,[2]; [6],4650 ng/g
same,concentration at 1 h,"[2]; Sprague-Dawley, kidney, intraperitoneal, 1 h after ~50 mg/kg ip, rat, read-out: INT131 concentration in Kidney",7730 ng/g
same,concentration at 6 h,[2]; [7],32900 ng/g
same,concentration at 24 h,[2]; [7],15400 ng/g
same,concentration at 1 h,"[2]; Sprague-Dawley, liver, intraperitoneal, 1 h after ~50 mg/kg ip, rat, read-out: INT131 concentration in Liver",24400 ng/g
same,concentration at 6 h,[2]; [8],141000 ng/g
same,concentration at 24 h,[2]; [8],36400 ng/g
same,Kp at 6 h,"[2]; Sprague-Dawley, rat, brain and spinal cord relative to blood, intraperitoneal, 50 mg/kg, 6 hours after injection, read-out: level of INT131 in brain and spinal cord relative to the level found in blood",~0.1
same,concentration at 1 day,"[2]; Sprague-Dawley, rat, brain and spinal cord, intraperitoneal, 50 mg/kg, 1 day after injection, read-out: absolute amount of INT131 in the brain and spinal cord",> 4000 ng/g
same,concentration at 1 h,"[2]; Sprague-Dawley, rat, neural compartments (brain tissue), intraperitoneal, one hour after single administration of ~50 mg/kg, read-out: average amount of INT131 in the neural compartments",< 500 ng/g
same,Kp at 24 h,"[2]; Sprague-Dawley, rat, neural tissues relative to circulation (blood), intraperitoneal, 50 mg/kg, 24 hours after injection, read-out: level of INT131 in neural tissues relative to that found in the circulation",0.25
same,concentration at 1 h,"[2]; Sprague-Dawley, small bowel, intraperitoneal, 1 h after ~50 mg/kg ip, rat, read-out: INT131 concentration in Small bowel",19700 ng/g
same,concentration at 6 h,[2]; [9],223000 ng/g
same,concentration at 24 h,[2]; [9],34500 ng/g
same,concentration at 1 h,"[2]; Sprague-Dawley, spinal cord, intraperitoneal, 1 h after ~50 mg/kg ip, rat, read-out: INT131 concentration in Spinal cord",478 ng/g
same,concentration at 6 h,[2]; [10],4810 ng/g
same,concentration at 24 h,[2]; [10],4310 ng/g
same,increase of the amount of INT131 in the neural tissues versus 1 hour,[2]; at 6 and 24 hours,approximately 10 fold
same,"amount in neural compartments, fold less than that found in the circulation",[2]; one hour after single administration of ~50 mg/kg,approximately 10 fold
O=S(=O)(Nc1cc(Cl)c(Oc2cnc3ccccc3c2)c(Cl)c1)c1ccc(Cl)cc1Cl [[^3H]INT131],stability of radiolabeled material over the course of the study (HPLC),[3],virtually all of the radiolabeled material was found in a single peak
